Patent publication EP2890687B1, “SALTS OF BENZOTHIAZOLONE COMPOUND AS BETA-2-ADRENOCEPTOR AGONIST” (priority 2012, dated 2014)
pEC50: −log10 of the molar value. Converted amounts (≈) assume the structure as drawn. Where two headings read alike, the source gives them in different places.

Legend:
α1A AR = target: T1, α1A AR (Homo sapiens, UniProt P35348); assay: Ca2+ FLIPR assay in human adrenergic Alpha1A CHO-K1 cell line (Test 1); format: cell-based; settings: summary in words
T1 construct: host or cells: CHO-K1
T1 sequence (P35348 1-466): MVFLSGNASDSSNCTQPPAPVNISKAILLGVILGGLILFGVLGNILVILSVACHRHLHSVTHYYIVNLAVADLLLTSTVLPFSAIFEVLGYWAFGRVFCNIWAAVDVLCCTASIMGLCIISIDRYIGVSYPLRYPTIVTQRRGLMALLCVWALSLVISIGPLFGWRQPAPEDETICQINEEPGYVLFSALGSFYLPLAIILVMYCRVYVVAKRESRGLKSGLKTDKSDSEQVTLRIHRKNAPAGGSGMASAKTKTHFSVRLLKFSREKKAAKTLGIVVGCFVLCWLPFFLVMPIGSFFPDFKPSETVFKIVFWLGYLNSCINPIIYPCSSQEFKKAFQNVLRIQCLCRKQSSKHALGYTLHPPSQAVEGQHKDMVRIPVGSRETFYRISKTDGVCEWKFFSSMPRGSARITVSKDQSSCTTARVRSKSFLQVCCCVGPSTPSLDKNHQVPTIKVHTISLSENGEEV

[1] = Comparative solubility in H2O with pH adjustment by HCl or NaOH; format: physicochemical; settings: water, read-out: solubility in H2O, Conc
Experimental: The relative solubilities of the free base form and the acetate and glycolate salt forms of Compound A were analysed and the results are show in the table below. Solutions were titrated with addition of HCl or NaOH for pH adjustment. The improved aqueous solubilities of the acetate and glycolate salt forms relative to the free base form of Compound A make the acetate and glycolate salts of Compound A more suitable for subcutaneous injection or infusion.

Adrenergic beta1 = Adrenergic beta1 (Cavia porcellus, UniProt H0W3H1); assay: Left atrium contraction assay (Ricerca, Adrenergic beta1); parameters: species or system Dunkin Hartley Guinea pig
Adrenergic beta1, sequence (H0W3H1 1-470): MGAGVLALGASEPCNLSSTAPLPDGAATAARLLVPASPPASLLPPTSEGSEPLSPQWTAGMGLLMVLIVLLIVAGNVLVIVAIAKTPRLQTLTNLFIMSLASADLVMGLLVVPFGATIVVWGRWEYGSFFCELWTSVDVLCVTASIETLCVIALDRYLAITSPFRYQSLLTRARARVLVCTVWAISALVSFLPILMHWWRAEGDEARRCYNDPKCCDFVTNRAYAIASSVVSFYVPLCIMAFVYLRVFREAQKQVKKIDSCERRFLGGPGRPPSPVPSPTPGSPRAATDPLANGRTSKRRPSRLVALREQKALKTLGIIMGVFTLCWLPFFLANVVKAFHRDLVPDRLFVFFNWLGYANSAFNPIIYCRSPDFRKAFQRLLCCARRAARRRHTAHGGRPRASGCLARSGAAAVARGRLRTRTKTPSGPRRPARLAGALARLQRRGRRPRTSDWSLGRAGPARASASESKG

Sino-Atrial node = Sino-Atrial node beating rate in isolated rabbit right atrium; parameters: species or system New Zealand white female rabbits; settings: n=6
[2] = test system: isolated Langendorff perfused rabbit hearts; assay: Automaticity in isolated Langendorff perfused rabbit hearts
rats = assay: Heart rate in rats after s.c. bolus; format: in vivo, Wistar Han (W-H) IGS rats; settings: up to 0.3 mg/kg, Figures 3a-3c
Source text: Wistar Han (W-H) IGS (International Genetic Standard) rats (Crl:WI(Han)) were purchased from Charles River Laboratories. Femoral arterial and venous catheters were chronically implanted and exteriorized through a spring tether-swivel system and housed in specialized cages. Arterial catheter was connected to a pressure transducer to continuously measure pulse pressure, mean arterial pressure and heart rate, which was derived from the blood pressure signal, via a digital data acquisition system. Compounds were administered via s.c catheter implanted through the skin buttun. Values are expressed as means ± SEM (n=3).

Rhesus monkeys = assay: Heart rate in rhesus monkeys after single s.c. administration; format: in vivo; settings: s.c. bolus, up to 0.03 mg/kg, Figures 4a, 4b
Experimental: Rhesus monkeys, 24 females with body weight around 4 to 8 kg, were randomized into 4 groups of n=6. The animals were restrained on a chair up to 4 hours after single subcutaneous administration of compounds, and then returned to their pens. Heart rates were measured using a Surgivet V3304 device. Values are expressed as means ± SEM (n=6).

human 5-HT2C receptor = target: T2, human 5-HT2C receptor (Homo sapiens, UniProt P28335); assay: 3H-Mesulergine binding to hr5-HT2C CHO cell membranes; settings: 3H-Mesulergine 1 nM, kind of constant not stated
T2 construct: purchased Biosignal Packard, USA; host or cells: CHO cell membranes
T2 sequence (P28335 33-458): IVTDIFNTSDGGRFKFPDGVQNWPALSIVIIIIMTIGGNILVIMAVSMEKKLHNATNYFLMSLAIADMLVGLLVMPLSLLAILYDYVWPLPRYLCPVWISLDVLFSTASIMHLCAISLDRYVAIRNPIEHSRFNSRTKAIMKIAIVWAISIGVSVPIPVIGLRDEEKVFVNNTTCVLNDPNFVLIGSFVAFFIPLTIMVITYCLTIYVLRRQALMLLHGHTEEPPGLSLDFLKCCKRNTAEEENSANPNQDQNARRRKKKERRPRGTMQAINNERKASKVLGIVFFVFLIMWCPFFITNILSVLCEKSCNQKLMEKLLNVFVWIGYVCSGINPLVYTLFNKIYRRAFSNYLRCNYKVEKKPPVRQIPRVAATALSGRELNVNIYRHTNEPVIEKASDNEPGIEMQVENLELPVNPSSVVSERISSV
Experimental: Non-specific binding is evaluated in the presence of 1 µM Mesulergine. Fifty µL each of membrane, ligand and compound in a total volume of 250 µL are incubated in 96-well plates for 60 min at 22° C in a buffer containing 50 mM Tris, 0.1% ascorbic acid, 10 µM Pargyline, pH 7.7. The plates are filtrated, washed 3 times in ice-cold 50 mM Tris, dred and measured in Topcount.

Serotonin 5-HT2C = target: T3, Serotonin 5-HT2C (Homo sapiens, UniProt P28335); assay: Aequorin agonist assay in CHO-K1 cells expressing recombinant Serotonin 5-HT2Cne and Gα16; format: cell-based; settings: for Emax: CHO-K1, percentage of the activity of the reference agonist at its EC100
T3 construct: expressed in transfected cells; host or cells: CHO-K1 coexpressing mitochondrial apoaequorin and Gα16
T3 sequence (P28335 33-458): T2 sequence (P28335 33-458)

[3] = Steady state plasma concentration in the rat minipump study; format: in vivo, Male Wistar Han IGS rats; settings: rats
Experimental: Rats were acclimated to the facility for 7 days. […] Food and water were provided ad libitum. […] Body weights were measured twice per week. […] Brain weight was used for normalization of organ weights. Results are expressed as mean +/-SEM.

[4] = test system: skeletal muscle and heart; settings: rats
Rat cardiomyocytes = assay: cAMP response in primary rat cardiomyocytes; settings: Cardiomyocyte
Rat skMC = assay: cAMP response in primary rat skeletal muscle cells
Human skMC = assay: cAMP response in primary human skeletal muscle cells (differentiated skeletal myotubes); settings: read-out: Primary cells; for Emax: cAMP response Emax % Human skMC; for pEC50: cAMP response EC50 Human skMC, differentiated skeletal myotubes
β2 AR = β2 AR (Homo sapiens, UniProt P07550); assay: cAMP functional assay in CHO cells stably transfected with human β2 adrenoceptor (Test 1); settings: for pEC50: CHO cells EC50 β2 AR, cAMP, CHO cells stably transfected with human β2 adrenoceptor; for Emax: CHO, read-out: CHO cells Emax % β2 AR, cAMP, compared to isoprenaline
β2 AR, sequence (P07550 whole entry): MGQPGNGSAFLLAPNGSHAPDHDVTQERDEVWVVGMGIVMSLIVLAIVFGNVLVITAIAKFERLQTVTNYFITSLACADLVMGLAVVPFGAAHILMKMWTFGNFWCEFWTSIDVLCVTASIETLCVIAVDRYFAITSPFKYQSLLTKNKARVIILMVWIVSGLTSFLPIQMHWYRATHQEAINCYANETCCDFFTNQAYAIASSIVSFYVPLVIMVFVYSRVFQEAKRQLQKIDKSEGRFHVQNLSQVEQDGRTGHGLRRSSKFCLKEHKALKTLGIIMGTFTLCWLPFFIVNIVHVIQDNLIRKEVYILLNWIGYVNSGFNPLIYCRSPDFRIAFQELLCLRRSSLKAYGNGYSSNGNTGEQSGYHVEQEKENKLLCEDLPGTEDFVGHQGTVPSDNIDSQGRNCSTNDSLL

β1 AR = β1 AR (Homo sapiens, UniProt P08588); assay: cAMP functional assay in CHO cells stably transfected with human β1 adrenoceptor (Test 1); settings: for Emax: CHO, read-out: CHO cells Emax % β1 AR
β1 AR, sequence (P08588 whole entry): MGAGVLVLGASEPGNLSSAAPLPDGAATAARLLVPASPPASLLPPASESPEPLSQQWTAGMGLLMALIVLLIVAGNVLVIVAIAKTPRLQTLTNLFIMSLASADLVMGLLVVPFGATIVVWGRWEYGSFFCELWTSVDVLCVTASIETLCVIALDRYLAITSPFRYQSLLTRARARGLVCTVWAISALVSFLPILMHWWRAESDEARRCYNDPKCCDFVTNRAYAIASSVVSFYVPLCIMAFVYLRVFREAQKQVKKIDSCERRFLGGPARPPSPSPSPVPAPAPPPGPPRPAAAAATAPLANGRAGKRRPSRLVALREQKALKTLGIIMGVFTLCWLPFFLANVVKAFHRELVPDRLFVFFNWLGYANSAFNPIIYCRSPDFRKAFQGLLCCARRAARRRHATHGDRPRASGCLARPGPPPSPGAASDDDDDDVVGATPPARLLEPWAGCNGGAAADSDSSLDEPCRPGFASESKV

[5] = Homo sapiens, Myotube, compared to formoterol

SMILES: CCCCOc1ccc(CC(C)(C)NC[C@H](O)c2cc(O)cc3[nH]c(=O)sc23)cc1 [Compound A, (R)-7-(2-(1-(4-butoxyphenyl)-2-methylpropan-2-ylamino)-1-hydroxyethyl)-5-hydroxybenzo[d]thiazol-2(3H)-one]
- activity on α1A AR (α1A AR): no activity
- solubility ([1]; aqueous buffer, pH 7.0): 0.05 mg/mL (≈ 116 µM)
- solubility ([1]; pH 6.2, aqueous buffer): 0.27 mg/mL (≈ 627 µM)
- solubility ([1]; pH 7.3, aqueous buffer): < 0.01 mg/mL
- solubility ([1]; pH 7.8, aqueous buffer): < 0.01 mg/mL
- pEC50 (Adrenergic beta1; guinea pig left atria, n=2): < 5.00
- effects on left atrium contraction (Adrenergic beta1; up to 10 µM): no effects
- Sino-Atrial node beating rate, maximum increase (Sino-Atrial node): +6.2%
- effects on the pacemaker activity ([2]; compared to Formoterol, Figures 2a, 2b): less direct effects
- Automaticity, maximum increase ([2]; isolated rabbit heart, n=3): +17%
- heart rate change (rats): less heart rate increases compared to formoterol
- heart rate change (Rhesus monkeys): less heart rate increase compared to formoterol
- Serotonin 5-HT2C Binding (human 5-HT2C receptor): 11 µM
- fold less active on 5-HT2C compared to the racemate or the (S) enantiomer (Serotonin 5-HT2C): over 10 fold
- fold less active on 5-HT2C compared to β2 AR agonist activity (Serotonin 5-HT2C; 5-HT2C EC50 versus β2 AR EC50 (5.6 nM)): 50 fold
- Emax (Serotonin 5-HT2C): 83%
- pEC50 (Serotonin 5-HT2C; agonist mode, aequorin luminescence): 6.55
- steady state plasma concentration ([3]; 0.01 mg/kg/day s.c. minipump): ~ 0.2 nM
- steady state concentration ([3]; 0.1 mg/kg/day s.c. minipump): ~ 2 nM
- skeletal muscle hypertrophy ([4]; 0.01 mg/kg/day s.c. minipump, 28 days, significant): 11%
- heart histopathology ([4]; even at 0.1 mg/kg/day s.c. minipump, 28 days): no findings
- skeletal muscle mass and heart mass increase (Figure 1) ([4]; s.c. minipump 28 days, formoterol 0.003-0.03, Compound A 0.01-0.1 mg/kg/day): induces skeletal muscle hypertrophy with minimum impact on heart mass
- pEC50 (Rat cardiomyocytes; read-out: Primary cells, cAMP response EC50 Rat cardiomyocytes): 8.24
- Emax (Rat cardiomyocytes; read-out: Primary cells, cAMP response Emax % Rat cardiomyocytes): 71%
- pEC50 (Rat skMC; Myotube, read-out: Primary cells, cAMP response EC50 Rat skMC): 8.47
- Emax (Rat skMC; read-out: Primary cells, cAMP response Emax % Rat skMC): 98%
- Emax (Human skMC; [5]): 96%
- pEC50 (Human skMC; listed as Compound A (R)): 9.15
- pEC50 (β2 AR): 8.25
- Emax (β2 AR): 88%
- pEC50 (β1 AR): 6.25
- Emax (β1 AR): 32%
- intrinsic efficacy on β1 AR (β1 AR; summary in words): very low intrinsic efficacy

SMILES: CCCCOc1ccc(CC(C)(C)NC[C@@H](O)c2cc(O)cc3[nH]c(=O)sc23)cc1 [Compound B]
- Serotonin 5-HT2C Binding (human 5-HT2C receptor): 0.8 µM
- Emax (Serotonin 5-HT2C): 99%
- pEC50 (Human skMC; Homo sapiens, Myotube): 6.55
- Emax (Human skMC; [5]): 100%
- Emax (β2 AR): 83%

SMILES: CCCCOc1ccc(CC(C)(C)NCC(O)c2cc(O)cc3[nH]c(=O)sc23)cc1 (racemic) [Compound A/B]
- Serotonin 5-HT2C Binding (human 5-HT2C receptor): 1.7 µM
- Emax (Serotonin 5-HT2C): 113%
- pEC50 (Human skMC; Homo sapiens, Myotube): 9.20
- Emax (Human skMC; [5]): 100%
- Emax (β2 AR): 87%
- Emax (β1 AR): 38%

SMILES: CC(=O)O.CCCCOc1ccc(CC(C)(C)NC[C@H](O)c2cc(O)cc3[nH]c(=O)sc23)cc1 [Compound A (R) acetate salt, (R)-7-(2-(1-(4-butoxyphenyl)-2-methylpropan-2-ylamino)-1-hydroxyethyl)-5-hydroxybenzo[d]thiazol-2(3H)-one acetate salt]
- solubility ([1]; aqueous buffer, pH 6.0): 1.11 mg/mL
- solubility ([1]; pH 5.9, aqueous buffer): 1.33 mg/mL
- solubility ([1]; pH 6.1, aqueous buffer): 1.1 mg/mL
- solubility ([1]; pH 6.2, aqueous buffer): 0.55 mg/mL
- Emax (Human skMC; Homo sapiens, Myotube, compared to isoprenaline): 93%
- pEC50 (Human skMC; acetate salt): 8.77
- pEC50 (β2 AR): 8.60

SMILES: CCCCOc1ccc(CC(C)(C)NC[C@H](O)c2cc(O)cc3[nH]c(=O)sc23)cc1.O=C(O)CO [Compound A glycolate salt, (R)-7-(2-(1-(4-butoxyphenyl)-2-methylpropan-2-ylamino)-1-hydroxyethyl)-5-hydroxybenzo[d]thiazol-2(3H)-one glycolate salt]
- solubility ([1]; pH 5.1, aqueous buffer): 13.1 mg/mL
- solubility ([1]; pH 5.3, aqueous buffer): 6.39 mg/mL
- solubility ([1]; pH 5.4, aqueous buffer): 4.47 mg/mL
